From BindingDB's records for doi:10.1021/np970376z (Aoyama Gakuin University, 1998) come the findings set out here.

A value given as a limit tells only on which side of the number the result lay.

The target of this assay is Prothrombin (Homo sapiens, UniProt P00734). Briefly: Inhibition of thrombin.

In general, IC50 refers to the concentration at which inhibition is half-maximal. High values mean a need for much substance, low ones inhibition by little substance. The compound `C/C(=C\Cc1cc(O)ccc1O)CCC[C@@H](C)[C@@H](C[C@@H]1CCC[C@H]2C(C)(C)CCC[C@@]12C)OS(=O)(=O)O` returned an IC50 greater than 136 µM. For `CC1(C)CCC[C@H]2[C@H]1CC[C@@]1(C)[C@@H]2CC/C(=C\OS(=O)(=O)O)[C@@H]1CCc1ccoc1` [listing 1 of 2 here] the value was 47.7 µM; for `CC1(C)CCC[C@H]2[C@H]1CC[C@@]1(C)[C@@H]2CC/C(=C\OS(=O)(=O)O)[C@@H]1CCc1ccoc1` [listing 2 of 2 here], 42.7 µM.
